Series [1] deals with Oryctolagus cuniculus. The series is described as follows: Toxicity in New Zealand white rabbit assessed as CNS effect at 0.1 and 1 umol/kg/min. The class given is organism-based, Central nervous system. The following applies: in vivo.
Series [2] deals with Intermediate conductance calcium-activated potassium channel protein 4 (Homo sapiens, UniProt O15554). The series is described as follows: Inhibition of IK channel (unknown origin).
Series [3] has as its target Voltage-gated inwardly rectifying potassium channel KCNH2 (Homo sapiens, UniProt Q12809).
For series [4], the target named is Potassium voltage-gated channel subfamily A member 5 (Homo sapiens, UniProt P22460). As to the kind of experiment: Inhibition of human Kv1.5 channel expressed in CHO cells by high throughput planar patch clamp assay. The class given is cell-based.
Sequence of Potassium voltage-gated channel subfamily A member 5 (P22460 whole entry): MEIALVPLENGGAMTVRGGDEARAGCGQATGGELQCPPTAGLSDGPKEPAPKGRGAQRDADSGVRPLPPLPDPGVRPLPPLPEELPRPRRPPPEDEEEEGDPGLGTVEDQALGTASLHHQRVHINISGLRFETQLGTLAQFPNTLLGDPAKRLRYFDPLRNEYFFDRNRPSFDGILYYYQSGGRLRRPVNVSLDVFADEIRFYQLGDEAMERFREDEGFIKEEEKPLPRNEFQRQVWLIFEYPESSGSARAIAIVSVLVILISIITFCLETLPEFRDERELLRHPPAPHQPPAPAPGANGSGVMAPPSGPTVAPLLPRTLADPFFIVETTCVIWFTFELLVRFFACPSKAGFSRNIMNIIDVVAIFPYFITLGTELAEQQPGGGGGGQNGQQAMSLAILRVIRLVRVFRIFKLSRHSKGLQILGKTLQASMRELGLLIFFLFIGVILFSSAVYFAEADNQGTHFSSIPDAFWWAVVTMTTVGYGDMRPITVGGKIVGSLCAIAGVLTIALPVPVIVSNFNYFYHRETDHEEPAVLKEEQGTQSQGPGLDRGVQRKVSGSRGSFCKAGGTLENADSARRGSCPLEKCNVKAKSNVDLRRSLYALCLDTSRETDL
Series [5] can be described thus: Lipophilicity, log D of compound at pH 7.4. The class given is physicochemical. The following applies: buffer.
Series [6] deals with Oryctolagus cuniculus. The series is described as follows: Increase of effective refractory period in New Zealand white rabbit assessed as maximum change in QT interval at 0.1 and 1 umol/kg/min for 15 mins infusions. In kind it is functional.
A short description of series [7]: Intrinsic clearance in human liver microsomes. The class given is ADME, Microsome. Conditions: read-out: CLH.
A short description of series [8]: Apparent permeability of the compound in human Caco2 cells. In kind it is ADME, cell-based. The following applies: Caco-2.
A short description of series [9]: Oral bioavailability in rat. The class given is ADME, organism-based. Conditions: in vivo.
Series [10] is described as follows: Solubility of the compound at pH 7.4. In kind it is physicochemical. The following applies: buffer.
A further series concerns Plasma. The series is described as follows: Unbound steady state plasma concentration in New Zealand white rabbit assessed as concentration required to 20% change in atrium effective refractory period at 0.1 and 1 umol/kg/min for 15 mins infusions. In kind it is ADME, cell-free, Oryctolagus cuniculus. Conditions: 0.25 h.
A short description of series [11]: Clearance in rat. In kind it is ADME, organism-based. The following applies: in vivo.
The species named for series [12] is Oryctolagus cuniculus. The series is described as follows: Toxicity in New Zealand white rabbit assessed as CNS effect at plasma concentration of 3 to 4 times 20% change in atrium effective refractory period. The class given is organism-based. Conditions: in vivo.

Experimental findings from ChEMBL document CHEMBL2311449, “Synthesis and evaluation of diphenylphosphinic amides and diphenylphosphine oxides as inhibitors of Kv1.5” (Bioorg Med Chem Lett, 2013) are described below.

Values after ≈ are worked out from the molar mass of the structure shown.

Sequence of Intermediate conductance calcium-activated potassium channel protein 4 (O15554 whole entry): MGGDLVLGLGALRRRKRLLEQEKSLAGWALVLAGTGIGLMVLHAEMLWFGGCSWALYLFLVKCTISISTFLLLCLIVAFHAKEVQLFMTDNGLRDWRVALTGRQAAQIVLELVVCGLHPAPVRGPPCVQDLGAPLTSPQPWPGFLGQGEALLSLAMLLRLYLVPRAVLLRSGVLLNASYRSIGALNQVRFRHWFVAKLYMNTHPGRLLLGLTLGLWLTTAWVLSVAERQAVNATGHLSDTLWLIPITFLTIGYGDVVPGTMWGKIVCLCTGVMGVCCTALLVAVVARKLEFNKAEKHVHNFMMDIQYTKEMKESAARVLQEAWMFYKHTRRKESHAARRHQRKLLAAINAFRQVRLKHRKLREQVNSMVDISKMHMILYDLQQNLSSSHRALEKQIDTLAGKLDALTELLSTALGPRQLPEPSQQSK
Sequence of Voltage-gated inwardly rectifying potassium channel KCNH2 (Q12809 whole entry): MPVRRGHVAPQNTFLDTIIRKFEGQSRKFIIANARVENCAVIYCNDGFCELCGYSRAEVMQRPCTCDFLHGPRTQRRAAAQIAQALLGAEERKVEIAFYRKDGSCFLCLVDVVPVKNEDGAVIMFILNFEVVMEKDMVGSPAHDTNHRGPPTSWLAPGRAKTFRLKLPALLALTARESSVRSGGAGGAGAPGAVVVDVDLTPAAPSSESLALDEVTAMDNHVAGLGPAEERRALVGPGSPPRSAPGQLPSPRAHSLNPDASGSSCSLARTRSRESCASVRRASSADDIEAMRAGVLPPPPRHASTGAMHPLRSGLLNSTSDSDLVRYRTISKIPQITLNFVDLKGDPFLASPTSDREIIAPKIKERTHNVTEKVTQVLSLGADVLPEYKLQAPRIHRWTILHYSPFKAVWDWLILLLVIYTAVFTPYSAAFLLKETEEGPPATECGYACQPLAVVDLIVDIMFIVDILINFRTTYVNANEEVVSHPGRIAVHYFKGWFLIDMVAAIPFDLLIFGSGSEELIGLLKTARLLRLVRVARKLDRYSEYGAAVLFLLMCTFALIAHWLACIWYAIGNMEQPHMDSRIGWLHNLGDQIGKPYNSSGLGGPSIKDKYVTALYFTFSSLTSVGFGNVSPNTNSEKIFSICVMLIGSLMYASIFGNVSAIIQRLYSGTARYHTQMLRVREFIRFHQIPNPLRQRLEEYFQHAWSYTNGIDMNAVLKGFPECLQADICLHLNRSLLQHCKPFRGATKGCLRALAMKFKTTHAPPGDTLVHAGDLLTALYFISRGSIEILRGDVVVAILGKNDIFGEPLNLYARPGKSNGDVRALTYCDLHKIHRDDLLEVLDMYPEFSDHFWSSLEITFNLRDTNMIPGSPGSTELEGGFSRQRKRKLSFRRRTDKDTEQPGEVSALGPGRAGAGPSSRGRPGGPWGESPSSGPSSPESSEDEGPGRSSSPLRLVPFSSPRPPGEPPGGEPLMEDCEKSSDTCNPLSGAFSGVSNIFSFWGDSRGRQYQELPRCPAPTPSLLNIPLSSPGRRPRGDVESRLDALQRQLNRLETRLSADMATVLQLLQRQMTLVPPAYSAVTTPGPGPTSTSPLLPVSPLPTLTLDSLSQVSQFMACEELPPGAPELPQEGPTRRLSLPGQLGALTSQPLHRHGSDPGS

For the compound `CCCN(c1cccc(S(C)(=O)=O)c1)P(=O)(c1ccccc1)c1ccccc1`, the Activity result with Oryctolagus cuniculus [1] is reported as “Toxic”. For the same compound, the IC50 in [2] is greater than 33000 nM; in [3], greater than 33000 nM; in [4], 930 nM.

As to `O=P(c1ccccc1)(c1ccccc1)N(c1cccnc1)c1cccnc1`, in series [4], the IC50 amounted to 1600 nM.

Consider `O=P(c1ccccc1)(c1ccccc1)C(c1cccnc1)c1cccnc1`, for which the values for the IC50 in series [2] and in series [4] were 1000 nM and 180 nM, respectively.

Turning to `O=P(NCc1cccnc1-c1cc(Cl)cc(Cl)c1)(c1ccccc1)c1ccccc1`, the IC50 in [2] came to 13000 nM; in series [4] it was 80 nM.

On to `O=P(c1ccccc1)(c1ccccc1)C(c1ccccc1)c1cccnc1` (racemic), for which the IC50 is 500 nM in [2] and 100 nM in series [4].

In [5], `CC(C)[C@@H]1CC[C@@H](C)C[C@@H]1P(=O)(c1ccccc1)c1ccccc1` yielded a pH-dependent lipophilicity (logD) of 6.

On to `N#Cc1cccc(-c2ncccc2CNP(=O)(c2ccccc2)c2ccccc2)c1`, for which the Activity result in the series with Oryctolagus cuniculus [1] is “Toxic”. Also, the half-maximal inhibitory concentration (IC50) was 7700 nM in series [2] and 540 nM in series [4].

In the case of `O=P(Nc1cc(F)ccc1-n1cccn1)(c1ccccc1)c1ccccc1`, the results for the half-maximal inhibitory concentration (IC50) in [2], in series [3] and in series [4] were 7800 nM, greater than 33000 nM and 4100 nM, respectively.

Regarding `CCCN(c1cccnc1)P(=O)(c1ccccc1)c1ccccc1`, the IC50 in series [2] is 14000 nM; in series [3], greater than 33000 nM; in series [4] it was 120 nM. The Activity is given as 23% with Oryctolagus cuniculus [6] and “Toxic” in the series filed under Oryctolagus cuniculus [12]. For the same compound, the microsomal CLint in [7] was 158 µL/min/mg. In series [8], the apparent permeability coefficient (Papp) turned out to be 30 ×10⁻⁶ cm/s. The same compound came in with a bioavailability in series [9] of 55%. Also, the concentration in solution in [10] (solubility) was 91 µM (≈ 30.6 µg/mL). Also, in the series with Plasma, the “Cp(f)ss” value was 800 nM. The clearance in [11] stood at 11 mL/min/kg. In series [5], the log distribution coefficient (logD) was found to be 2.6.

Regarding `O=P(NCc1ccccc1-c1cccnc1)(c1ccccc1)c1ccccc1`, the IC50 in [2] is greater than 33000 nM; in series [3], greater than 33000 nM; in series [4], 2300 nM.

With `c1ccc([C@H]([C@@H](c2ccccc2)N2CCCCC2)N2CCCCC2)cc1`, in series [4], the 50% inhibitory concentration (IC50) worked out at 1700 nM.

Consider `CCCN(c1cncnc1)P(=O)(c1ccccc1)c1ccccc1`, for which the half-maximal inhibitory concentration (IC50) is greater than 33000 nM in series [2] and 1000 nM in series [4]. In addition, the Activity with Oryctolagus cuniculus [6] is recorded as less than 10%; in the series filed under Oryctolagus cuniculus [12], “Toxic”. Moreover, in the series on Plasma, the “Cp(f)ss” value was 600 nM.

Consider `N#CCCCN(c1cccnc1)P(=O)(c1ccccc1)c1ccccc1`, for which the IC50 in [2] is 31000 nM; in series [3] it was greater than 33000 nM; in series [4], 1900 nM.

Consider `CCCN(c1cccc(C#N)c1)P(=O)(c1ccccc1)c1ccccc1`, for which the concentration for half-maximal inhibition (IC50) in [2] is 2700 nM; in series [3] it was greater than 33000 nM; in series [4], 200 nM.

For the compound `COCCN(c1cccnc1)P(=O)(c1ccccc1)c1ccccc1`, the 50% inhibitory concentration (IC50) in series [2] was greater than 33000 nM; in [3] it was greater than 33000 nM; in series [4], 620 nM.

For the compound `CCCNC(c1cccnc1)P(=O)(c1ccccc1)c1ccccc1` (racemic), the 50% inhibitory concentration (IC50) in series [2] worked out at 14000 nM; in series [4], 750 nM.

As to `O=P(Nc1cccnc1)(c1ccccc1)c1ccccc1`, the IC50 in series [3] is greater than 33000 nM; in series [4] it was greater than 30000 nM.

With `COc1ccc(-c2ncccc2NP(=O)(c2ccccc2)c2ccccc2)cc1`, the IC50 in [3] is greater than 33000 nM; in series [4], 17000 nM.

For `O=P(NCc1cccnc1-c1cccc(Cl)c1)(c1ccccc1)c1ccccc1`, the 50% inhibitory concentration (IC50) worked out at 4900 nM in series [2] and 330 nM in series [4].

Turning to `O=P(c1ccccc1)(c1ccccc1)N(Cc1ccccn1)Cc1ccccn1`, the Activity result with Oryctolagus cuniculus [1] is “Toxic”. The IC50 was greater than 33000 nM in series [2], greater than 33000 nM in [3] and 1300 nM in series [4].

Regarding `O=P(c1ccccc1)(c1ccccc1)N(Cc1ccccn1)c1cccnc1`, in the series on Oryctolagus cuniculus [1], the Activity entry is “Toxic”. In addition, the half-maximal inhibitory concentration (IC50) in [2] was 10000 nM; in series [3], greater than 33000 nM; in [4], 530 nM.

As for `O=P(NCc1cccnc1-c1cccnc1)(c1ccccc1)c1ccccc1`, the IC50 in series [2] amounted to 33000 nM; in series [4], 2700 nM.

As for `O=P(c1ccccc1)(c1ccccc1)C(c1cccnc1)N1CCCCC1` (racemic), the values for the IC50 in [2] and in series [4] were 1800 nM and 140 nM, respectively.
